Data: patent US9822112B2, “Heteroarylene-bridged benzodiazepine dimers, conjugates thereof, and methods of making and using” (priority 2015, dated 2017)

Columns and labels:
Assay in all cases: Cytotoxic activity of dimers (ATP luminescence or MTS cell proliferation assay)
Format in all cases: cell-based
[1] = test system: N87 gastric cancer cell line; settings: N87 cells; free dimer; 72 h incubation
Experimental: (§1) The cytotoxic activity of dimers of this invention can be tested against various cancer cell lines, such as H226 lung cancer, DMS 79 lung cancer, H187 lung cancer, N87 gastric cancer, 786-O renal cancer, and/or OVCAR3 ovarian cancer cell lines. The ability of dimers to inhibit cell proliferation can be measured by either an ATP luminescence assay or an MTS cell proliferation assay.
(§2) This is a general procedure for an ATP luminescence assay: Cells are seeded at 1×10^3 cells/well in 96-well plates for 3 h for ATP CellTiterGlo™ assays, respectively. Serial dilutions (1:3) of compounds are added to the wells. Plates are allowed to incubate for 72 h. A CellTiterGlo™ cell viability kit from Promega is used to measure ATP content of cells treated with test compounds following manufacturer's instruction. A decrease in the ATP content is a measure of decrease in cellular viability. The EC50 value—the concentration at which an agent reduces cell viability by 50% of the maximum effect—can be calculated using PRISM™ software, version 5.0 (GraphPad Software, La Jolla, Calif., USA).
(§3) The MTS cell proliferation assay was performed as follows: CellTiter 96 Aqueous Non-Radioactive Cell proliferation Kit from Promega (Madison, Wis.) is used to determine the number of viable cells in cell proliferation assay. Tumor cells are plated at certain seeding densities in sterile 384-well black clear bottom Matrix plates at 40 μL per well and incubated overnight at 37° C. in 5% CO2 before assaying. On the next day, one set of cell plates (10 plates) is used to determine time zero cell density, and 3-(4,5-dimethylthiazol-2-yl)-5-(3-carboxymethoxyphenyl)-2-(4-sulfophenyl)-2H-tetrazolium is added at 4 μL/well into 10 plates followed by incubation at 37° C. in 5% CO2 for three hours. This tetrazolium reagent is bioreduced by […] to form a formazan product which is soluble in aqueous solution. Absorbance at 490 nm is measured on an Envision reader (Perkin Elmer, Boston, Mass.). On the same day, compounds are added into remaining cell plates (T72 plates) and incubated at 37° C. in 5% CO2. After 72 hours, 4 μL MTS reagents are then added into those cell plates. The plates are further incubated at 37° C. in 5% CO2 for three hours and the absorbance values at A490 were measured on an Envision reader.

[2] = test system: DMS 79 lung cancer cell line; settings: Homo sapiens; DMS 79 cells; free dimer; 72 h incubation
Experimental: as §1, §2, §3

[3] = test system: H187 lung cancer cell line; settings: Homo sapiens, NCI-H187; H187 cells; free dimer; 72 h incubation
Experimental: as §1, §2, §3

In the case of COc1cc2c(cc1OCc1cccc(COc3cc4c(cc3OC)C(=O)N3Cc5ccccc5C[C@H]3CN4)n1)NC[C@@H]1Cc3ccccc3CN1C2=O [IIa-15], the IC50 [1] is reported as 2.88 nM.
In the case of COc1cc2c(cc1OCc1cc(Cl)cc(COc3cc4c(cc3OC)C(=O)N3Cc5ccccc5C[C@H]3C=N4)n1)N=C[C@@H]1Cc3ccccc3CN1C2=O [IIa-13], the IC50 [1] is reported as 0.03 nM.
Work on COc1cc2c(cc1OCc1cc(O)cc(COc3cc4c(cc3OC)C(=O)N3Cc5ccccc5C[C@H]3C=N4)n1)N=C[C@@H]1Cc3ccccc3CN1C2=O [IIa-11] yielded an IC50 [1] of 4.92 nM.
COc1cc2c(cc1OCc1cccc(COc3cc4c(cc3OC)C(=O)N3Cc5cccnc5C[C@@H]3C=N4)n1)N=C[C@@H]1Cc3ccccc3CN1C2=O [Dimer 100] was tested, and the IC50 [1] was 0.1 nM.
Work on COc1cc2c(cc1OCc1cc(CO)cc(COc3cc4c(cc3OC)C(=O)N3Cc5ccccc5C[C@H]3C=N4)n1)N=C[C@@H]1Cc3ccccc3CN1C2=O [IIa-08] yielded an IC50 [1] of 2.71 nM.
Compound COc1cc2c(cc1OCc1cncc(COc3cc4c(cc3OC)C(=O)N3Cc5ccccc5C[C@H]3C=N4)c1)N=C[C@@H]1Cc3ccccc3CN1C2=O [IIa-06] has an IC50 [1] of 0.14 nM.
COc1cc2c(cc1OCc1cccc(COc3cc4c(cc3OC)C(=O)N3Cc5cccnc5C[C@H]3C=N4)n1)N=C[C@@H]1Cc3ccccc3CN1C2=O [IIa-16] was tested, and the IC50 [1] was 0.08 nM.
COc1cc2c(cc1OCc1cccc(COc3cc4c(cc3OC)C(=O)N3Cc5cc(N)ccc5C[C@H]3C=N4)n1)N=C[C@@H]1Cc3ccccc3CN1C2=O [IIa-03] showed an IC50 [2] of 0.002 nM, an IC50 [1] of 0.03 nM and an IC50 [3] of 0.002 nM.
Work on COc1cc2c(cc1OCc1cccc(COc3cc4c(cc3OC)C(=O)N3Cc5ccccc5C[C@H]3C=N4)n1)N=C[C@@H]1Cc3ccccc3CN1C2=O [IIa-01] yielded an IC50 [2] of 0.001 nM, an IC50 [1] of 0.02 nM and an IC50 [3] of 0.001 nM.
Compound COc1cc2c(cc1OCc1cc(COc3cc4c(cc3OC)C(=O)N3Cc5ccccc5C[C@H]3C=N4)c3ccccc3n1)N=C[C@@H]1Cc3ccccc3CN1C2=O [IIa-07] has an IC50 [1] of 0.25 nM.
